Results from article PMC8023496, “Immune mediation of HMG-like DSP1 via Toll-Spätzle pathway and its specific inhibition by salicylic acid analogs” (PLoS Pathogens, 2021).

Biological target: rSe-DSP1 (Se-DSP1; dorsal switch protein 1)
Assay: thermal shift assay (Protein Thermal Shift dye), melting temperature vs ligand concentration
Design: species or system Spodoptera exigua
Conditions: 500 ng protein; ligand 0-8 uM; compounds dissolved in DMSO

Kd	Compound
119 ± 20 nM	CCOc1cc(O)ccc1OC [3-ethoxy-4-methoxyphenol]
238 ± 40 nM	O=C(O)c1ccccc1O [salicylic acid]
